Assay results published in patent US6632822B1, “Compounds and therapeutic methods” (The Australian National University, priority 1999, dated 2003).
Like-named read-outs stand apart in the source and are kept apart here.

Legend:
[1] = test system: Plasmodium falciparum chloroquine-resistant strain (FAF6, derived from ITG2 strain); assay: Growth inhibition of chloroquine-resistant malaria parasite (parasite lactate dehydrogenase viability); type: cell-based
Excerpt: Compounds IA and IB (also referred to herein as calothrixins A and B respectively) were isolated from Calothrix strains (Schlegel et al, J. Appl, Phycol. 10, 471-479 (1998)), extracts of which were screened for activity against HeLa cells and Plasmodium as described in the Examples.
A chloroquine-resistant strain (FAF6, derived from ITG2 strain (Biggs, B. A., Gooze, L., Wycherley, K., Wollish, W., Southwell, B., Leech, J. H., and Brown, G. V (1991). Proc. Natl. Acad. Sci. USA 88, 9171-9174, 1991) of the malaria parasite. Plasmodium falciparum was used. Parasites were cultured in standard media (Trager, W. and Jensen, J. B. (1976). Science 193 673-675) with modifications (Cranmer, S. L., Magowan, C., Lian, J., Coppel, R. L., and Cooke, B. M. (1997). Trans. Roy. Soc. Trop. Med. Hyg. 91, 363-365). At the start of the assay the parasitaemia was 2% and haematocrit was 2%. Parasites were incubated in the presence of inhibitors in 96-well plates for 48 h.
Parasite-derived lactate dehydrogenase activity at the end of the 48 h period was used as a measure of parasite viability in vitro (Makler, M. T., Ries, J. M., Williams, J. A., Bancroft, J. E., Piper, R. C., Gibbins, B. L., and Hinrichs, D. J. (1993). Am. J. Trop. Med. Hyg. 48, 739-741).
The results are illustrated in FIG. 1.

[2] = test system: HeLa cells; assay: HeLa cell cytotoxicity, MTT assay; type: cell-based; settings: cultured HeLa cells, 4 days continuous incubation, ± s.d., listed as IB (Calothrixin B)
Protocol: The compounds of Formula IA and IB were also examined for their efficacy in inhibiting the growth of cultured HeLa cells (FIG. 2). The IC50 values are depicted in Table 2.
Exponentially growing HeLa cells were trysinized, centrifuged and resuspended in fresh medium. (RPMI 1640, 20% FCS, 2 mM glutamine). […] Calothrix cell extracts or the purified active compound were prepared in dimethyl sulphoxide, serially diluted in complete medium, then added (100 μL) in quadruplicate to cell suspensions. Cells were incubated continuously with extracts at 37° C. for 4 days. Cytotoxicity was determined using the MTT [3-(4,5dimethylthiazol-2-yl)-2,5-diphenyl-tetrazolium bromide] assay. MTT (50 μL, 2 mg ML^−1) was aliquotted into all wells of the microtitre plate and incubated at 37° C. for 4 h. Plates were inverted to discard medium and formazan crystals were solubilized in 100 μL DMSO with 25 μL glycine buffer (0.1 M glycine in 0.1 M NaCl, pH 10.5). Plates were agitated for 30 s and absorbances determined immediately at […] using a Titertek Multiskan Plus MKII ELISA plate reader.
The results are illustrated in FIG. 2.

Row | Structure (SMILES) | IC50 ([1]; Plasmodium falciparum, 48 h) [µM] | IC50 ([1]; chloroquine-resistant P. falciparum strain FAF6, 48 h incubation, parasite lactate dehydrogenase activity, ± s.d., listed as IB (Calothrixin B), read-out: IC50) [µM] | IC50 [2] [µM]
1 | CCN(CC)CCCC(C)Nc1ccnc2cc(Cl)ccc12 (stereo not drawn) [Chloroquine, reference compound] | 0.18 ± 0.044 | – | –
2 | O=C1c2[nH]c3ccccc3c2C(=O)c2cnc3ccccc3c21 [IB, Calothrixin B] | – | 0.083 ± 0.017 | 0.35 ± 0.082
